The nature of data set [1]: CACO-2 A > B permeability. The conditions noted are these: human. The data set is classed as in vitro ADME. The text has this: The compounds of the present invention are novel β-D-galactopyranose compounds that unexpectedly have shown high affinity for galectin-3 and are considered novel potent drug candidates. In addition, it is seen that with these compounds the advantage is that the pyrazole moiety A^1 results in an improved uptake over CACO-2 cells predicting high oral bioavailability after oral administration and this is supported by disclosed ADME data herein. Further compared to compounds where A^1 is a triazole moiety this improvement is significant.

The next data set can be described thus: Human hepatic Clint. Format: in vitro ADME.
A further data set concerns the target Gal-3 (Homo sapiens, UniProt P17931). Kind of data set: Fluorescence anisotropy assay, inhibition of galectin / fluorescein tagged saccharide probe interaction. The data set is classed as binding. The method, then:
The affinity of Example 1-59 for galectins were determined by a fluorescence anisotropy assay where the compound was used as an inhibitor of the interaction between galectin and a fluorescein tagged saccharide probe as described Sörme, P., Kahl-Knutsson, B., Huflejt, M., Nilsson, U. J., and Leffler H. (2004) Fluorescence polarization as an analytical tool to evaluate galectin-ligand interactions. Anal. Biochem. 334: 36-47, (Sarme et al., 2004)
(In general: Polarisation of emitted light reports the rotation of a fluorescent probe.)

The source of these data is patent US20240309038A1, “NOVEL GALACTOSIDE INHIBITOR OF GALECTINS” (GALECTO BIOTECH AB, priority 2020, published 2024).

The Papp A→B is how fast a substance crosses the layer from the apical side. The CLint scaled is a measure of how fast metabolising enzymes remove a compound, apart from limits set by blood flow. The low end stands for greater metabolic stability, the high end for faster metabolism. In general, Kd refers to the constant that tells how readily two partners part at equilibrium.

Chain of Gal-3 (P17931 whole entry, species assumed): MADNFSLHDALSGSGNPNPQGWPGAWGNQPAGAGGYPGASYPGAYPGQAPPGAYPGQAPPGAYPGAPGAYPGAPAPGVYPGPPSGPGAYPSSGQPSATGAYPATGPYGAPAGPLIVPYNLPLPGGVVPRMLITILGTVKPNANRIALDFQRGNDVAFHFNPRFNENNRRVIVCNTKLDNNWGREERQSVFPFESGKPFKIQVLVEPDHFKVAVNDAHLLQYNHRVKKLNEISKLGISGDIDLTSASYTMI

Take `Cc1nc([C@@H]2OC(CO)[C@H](O)C(n3cc(-c4cc(F)c(Cl)c(F)c4)cn3)C2O)n(-c2cc(Cl)cnc2C2CC2)n1` (stereo in doubt) [Example 1, 3-{5-{3-[4-(4-Chloro-3,5-difluorophenyl)-1H-1,2-pyrazol-1-yl]-3-deoxy-β-D-galactopyranosyl}-3-methyl-1H-1,2,4-triazol-1-yl}-5-chloro-2-cyclopropylpyridine]: the apparent permeability from apical to basolateral (Papp A→B) in data set [1] was 18 ×10⁻⁶ cm/s. In addition, the CLint scaled in “Human hepatic Clint” stood at 1.3 mL/min/kg. The compound also registered a dissociation constant Kd at Gal-3 of 32 nM.

`Cc1nc([C@@H]2OC(CO)[C@H](O)C(n3cc(-c4cc(F)c(Cl)c(F)c4)cn3)C2O)n(-c2cc(Cl)ccc2C(F)(F)F)n1` (stereo in doubt) [Example 5, 1-{5-{3-[4-(4-Chloro-3,5-difluorophenyl)-1H-1,2-pyrazol-1-yl]-3-deoxy-β-D-galactopyranosyl}-3-methyl-1H-1,2,4-triazol-1-yl}-5-chloro-2-(trifluoromethyl)benzene] had a Papp A→B in data set [1] of 18 ×10⁻⁶ cm/s. Besides, the CLint scaled in “Human hepatic Clint” is 0.4 mL/min/kg. This compound registered a dissociation constant (Kd) at Gal-3 of 6 nM.

In data set [1], `Cc1nc([C@@H]2OC(CO)[C@H](O)C(n3cc(-c4cc(F)c(F)c(F)c4)cn3)C2O)n(-c2ccc3nc(C)sc3c2)n1` (stereo in doubt) [Example 8, 6-{5-{3-Deoxy-3-[4-(3,4,5-trifluorophenyl)-1H-1,2-pyrazol-1-yl]-β-D-galactopyranosyl}-3-methyl-1H-1,2,4-triazol-1-yl}-2-methylbenzothiazole] showed an apparent permeability from apical to basolateral (Papp A→B) of 17 ×10⁻⁶ cm/s. Besides, in “Human hepatic Clint”, the CLint scaled stood at 0.3 mL/min/kg. Besides, the equilibrium dissociation constant (Kd) at Gal-3 is 22 nM.

As for `Cc1nc([C@@H]2OC(CO)[C@H](O)C(n3cc(-c4cc(F)c(Cl)c(F)c4)cn3)C2O)n(-c2ccc3nc(C)sc3c2)n1` (stereo in doubt) [Example 9, 6-{5-{3-[4-(4-Chloro-3,5-difluorophenyl)-1H-1,2-pyrazol-1-yl]-3-deoxy-β-D-galactopyranosyl}-3-methyl-1H-1,2,4-triazol-1-yl}-2-methylbenzothiazole], in data set [1], the apical-to-basolateral permeability (Papp A→B) was determined as 20 ×10⁻⁶ cm/s. The same compound returned a CLint scaled in the data set “Human hepatic Clint” of 0.6 mL/min/kg. On Gal-3, this compound came in with a Kd of 12 nM.

In data set [1], `Cc1nc([C@@H]2OC(CO)[C@H](O)C(n3cc(-c4cc(F)c(F)c(F)c4)cn3)C2O)n(-c2cc(Cl)cnc2C2CC2)n1` (stereo in doubt) [Example 13, 5-Chloro-3-{5-{3-deoxy-3-[4-(3,4,5-trifluorophenyl)-1H-1,2-pyrazol-1-yl]-β-D-galactopyranosyl}-3-methyl-1H-1,2,4-triazol-1-yl}-2-cyclopropylpyridine] displayed an apparent permeability from apical to basolateral (Papp A→B) of 10 ×10⁻⁶ cm/s. Also, in “Human hepatic Clint”, the CLint scaled was 0.2 mL/min/kg. The same compound returned a Kd at Gal-3 of 15 nM.

As to `Cc1nc([C@@H]2OC(CO)[C@H](O)C(n3cc(-c4cc(F)c(F)c(F)c4)cn3)[C@@H]2O)n(-c2cnc(C#N)c(Cl)c2)n1` (stereo partly drawn) [Example 23, 3-Chloro-2-cyano-5-{5-{3-deoxy-3-[4-(3,4,5-trifluorophenyl)-1H-1,2-pyrazol-1-yl]-β-D-galactopyranosyl}-3-methyl-1H-1,2,4-triazol-1-yl}pyridine], the affinity on Gal-3, expressed as Kd, was 240 nM.
